Data from EPA's ToxValDB 9.5 (doi:10.2903/j.efsa.2016.4515).
Values after ≈ are worked out from the molar mass of the structure shown.

Key:
Bibionidae = details: chronic/long-term, other
Anas platyrhynchos = details: chronic/long-term
Folsomia candida = details: chronic/long-term; mortality
Colinus virginianus = details: acute, oral, mortality
Apis mellifera = details: acute, mortality
Neomysis kadiakensis = details: chronic/long-term; duration: 28 days; reproduction
Aphidius rhopalosiphi = test: LR50; higher = less toxic; details: not reported; other

SMILES: CO/C=C(/C(=O)OC)c1ccccc1COc1cccc(C(F)(F)F)n1 [Picoxystrobin]
- NOEC (Bibionidae; duration: 21 days): 0.0084 mg/L
- NOEC (Bibionidae; duration: 28 days): 5 mg/kg
- NOEL (Anas platyrhynchos): 110 mg/kg-day
- NOEC (Folsomia candida): 12.5 mg/kg
- LC50 (Tagia sp.; acute, mortality): 3.35 mg/kg
- NOEC (Tagia sp.; chronic/long-term, reproduction): 0.315 mg/kg
- LD50 (Colinus virginianus; diet): > 1770 mg/kg-day
- LD50 (Colinus virginianus): > 2250 mg/kg
- LC50 (Oncorhynchus mykiss; acute, duration: 96 hours, mortality): 0.05 µg/mL (≈ 0.136 µM)
- NOEC (Oncorhynchus mykiss; chronic/long-term, duration: 28 days, growth): 0.01 mg/L
- LD50 (Apis mellifera; dermal): > 200 µg/piece
- LD50 (Apis mellifera; oral, unspecified): > 200 µg/piece
- NOEC (Neomysis kadiakensis): 0.0036 mg/L
- LD50 (Rattus norvegicus; acute, mortality): > 5000 mg/kg
- NOAEL (Rattus norvegicus; chronic): 21.8 mg/kg-day
- LR50 (Aphidius rhopalosiphi): 0.675 g/ha
